Values quoted from earlier work, collected in US20240139108A1, “ORAL PHARMACEUTICAL COMPOSITION OF ARSENIC TRIOXIDE” (INTAS PHARMACEUTICALS LTD., priority 2021, published 2024).

Assays:
[1] = orally administered versus same amount administered intravenously

Diarsenic trioxide
peak plasma concentration [1]: lower peak plasma concentration
prolongation of the QT interval and ventricular tachycardia [1]: less prolongation of the QT interval and ventricular tachycardia
solubility in water: low solubility in water
